This note sets out measurements from patent publication US12162858B2, “Quinoline derivatives as inhibitors of AXL/MER RTK and CSF1R” (QURIENT CO., LTD., priority 2018, dated 2024).

The target of one assay is T1, Axl (Homo sapiens, UniProt P30530).
T1 sequence (P30530 26-894): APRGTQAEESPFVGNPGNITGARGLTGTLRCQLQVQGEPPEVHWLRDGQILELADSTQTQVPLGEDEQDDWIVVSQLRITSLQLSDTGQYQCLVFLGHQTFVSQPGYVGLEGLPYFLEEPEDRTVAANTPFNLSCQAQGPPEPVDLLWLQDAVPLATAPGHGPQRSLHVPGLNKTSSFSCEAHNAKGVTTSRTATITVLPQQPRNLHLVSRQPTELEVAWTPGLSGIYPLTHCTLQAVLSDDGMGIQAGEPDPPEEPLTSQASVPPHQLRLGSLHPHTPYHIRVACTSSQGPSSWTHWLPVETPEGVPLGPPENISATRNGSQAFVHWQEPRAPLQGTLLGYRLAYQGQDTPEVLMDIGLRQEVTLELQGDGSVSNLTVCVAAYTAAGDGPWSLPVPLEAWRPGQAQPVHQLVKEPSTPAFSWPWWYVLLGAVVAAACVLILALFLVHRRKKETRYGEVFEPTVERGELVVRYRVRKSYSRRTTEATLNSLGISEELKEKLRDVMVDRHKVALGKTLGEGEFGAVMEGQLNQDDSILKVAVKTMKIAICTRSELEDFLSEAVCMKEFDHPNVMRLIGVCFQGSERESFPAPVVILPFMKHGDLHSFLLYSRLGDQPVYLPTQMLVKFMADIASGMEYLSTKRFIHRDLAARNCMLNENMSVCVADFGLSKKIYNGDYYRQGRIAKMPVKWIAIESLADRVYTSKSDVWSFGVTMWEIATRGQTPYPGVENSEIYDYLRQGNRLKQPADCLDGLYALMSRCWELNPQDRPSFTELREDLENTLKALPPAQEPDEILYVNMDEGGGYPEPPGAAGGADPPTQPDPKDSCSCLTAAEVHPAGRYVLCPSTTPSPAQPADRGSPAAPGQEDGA
The assay can be described thus: LanthaScreen Eu kinase binding assay for Axl. How it is done:
(§1) LanthaScreen® Eu Kinase Binding assays were conducted at Life Technologies using the manufacturer's specifications for each kinase indicated.
(§2) Briefly, the principle behind this assay is based upon the binding and displacement of an Alexa Fluor 647-labeled tracer to the kinase of interest. Binding of the tracer to the kinase is detected using an EU-labeled anti-tag antibody. Simultaneous binding of both the tracer and antibody to the kinase gives rise to a FRET-signal. Binding of an inhibitor to the kinase competes for binding with the tracer, resulting in a loss of FRET-signal.
(§3) A given compound was diluted in DMSO to make a stock compound solution. The stock compound solution was serially diluted over eight steps in DMSO. Each diluted compound solution in DMSO was diluted in kinase buffer. Afterwards four kinds of working solution were prepared. First, Tracer-Working solution consists of Tracer 236 and Kinase Buffer. Second, Axl, Mer, Tyro3 or Met/anti-GST-AB-Working solution contained one of the kinases Axl, and Mer or anti-GST-AB (=anti glutathione-S-transferase antibody) in Kinase Buffer. Third, anti-GST-AB-Working solution was made with anti-GST-AB and Kinase Buffer. Last, in the DMSO-Working solution DMSO was added to Kinase Buffer to a final concentration to 3%. Each of the four kinds of working solutions were separately added to the assay plate and then incubated for 1 h at room temperature. After incubation, the assay plate was measured with respect to the FRET-Signal with the EnVision (Perkin Elmer) using the program LanthaHTRF-Assay. Data evaluation was done in the Quattro Workflow software. Kd (the equilibrium dissociation constant) values were calculated relative to vehicle (DMSO) control wells.

For the next assay, the target named is T2, Mer (Homo sapiens, UniProt Q12866).
T2 construct: purchased Life Technologies
T2 sequence (Q12866 21-999): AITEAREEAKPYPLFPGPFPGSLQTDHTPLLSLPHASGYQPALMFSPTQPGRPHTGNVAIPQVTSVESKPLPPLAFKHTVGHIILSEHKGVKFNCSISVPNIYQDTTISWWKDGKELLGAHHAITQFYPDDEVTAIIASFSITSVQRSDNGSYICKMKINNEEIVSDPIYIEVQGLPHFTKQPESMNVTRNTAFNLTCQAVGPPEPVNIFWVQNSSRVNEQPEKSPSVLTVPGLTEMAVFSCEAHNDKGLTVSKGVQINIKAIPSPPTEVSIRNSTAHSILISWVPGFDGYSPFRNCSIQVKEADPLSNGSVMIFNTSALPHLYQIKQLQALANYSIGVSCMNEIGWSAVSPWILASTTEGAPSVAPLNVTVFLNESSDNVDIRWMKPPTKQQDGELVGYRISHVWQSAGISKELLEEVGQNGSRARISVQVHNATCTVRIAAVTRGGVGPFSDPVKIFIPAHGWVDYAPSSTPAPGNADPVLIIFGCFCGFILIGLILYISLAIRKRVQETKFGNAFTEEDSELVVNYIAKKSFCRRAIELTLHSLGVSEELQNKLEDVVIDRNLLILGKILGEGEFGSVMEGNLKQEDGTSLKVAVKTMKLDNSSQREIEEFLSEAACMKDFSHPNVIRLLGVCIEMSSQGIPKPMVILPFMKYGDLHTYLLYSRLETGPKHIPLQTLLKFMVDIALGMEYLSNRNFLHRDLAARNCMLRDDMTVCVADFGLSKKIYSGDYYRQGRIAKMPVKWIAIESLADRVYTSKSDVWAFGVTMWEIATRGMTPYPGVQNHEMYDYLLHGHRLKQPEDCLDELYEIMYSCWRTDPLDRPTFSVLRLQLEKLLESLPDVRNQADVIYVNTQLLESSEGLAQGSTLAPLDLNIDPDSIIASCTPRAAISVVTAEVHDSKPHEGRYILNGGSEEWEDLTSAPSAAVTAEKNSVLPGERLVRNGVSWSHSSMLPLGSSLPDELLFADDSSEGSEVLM
The assay can be described thus: LanthaScreen Eu kinase binding assay for Mer. On the procedure:
as §1, §2, §3

[1] abbreviates: comparison of compounds of present invention (**) vs compounds of WO2016/166250 (*), read-out: Binding activity Axl (Kd).
Where [2] appears, read: read-out: Axl kinase binding activity (Kd).
The mark [3] stands for this setting: comparison of compounds of present invention (**) vs compounds of WO2016/166250 (*), read-out: Binding activity Mer (Kd).
Setting [4] is: read-out: Mer kinase binding activity (Kd).

Each structure is given as a SMILES string. Where two headings read alike, the source gives them in different places.

`CCn1cc(OCC(F)(F)F)c(C(=O)Nc2ccc(Oc3ccnc4cc(OC)c(OC)cc34)cn2)n1` [Compound 4]: the Kd at Axl (setting [1]) was 1.1 nM; on Axl (setting [2]), below 100 nM; at Mer (setting [3]) it was 1.6 nM; on Mer (setting [4]), below 100 nM.
For the compound `CCn1cc(OC(C)C)c(C(=O)Nc2ccc(Oc3ccnc4cc(OC)c(OC)cc34)cn2)n1` [Compound 6], the Kd at Axl (setting [2]) and at Mer (setting [4]) was below 100 nM in each case.
As for `CCCn1cc(OCC(F)(F)F)c(C(=O)Nc2ccc(Oc3ccnc4cc(OC)c(OC)cc34)cn2)n1` [Compound 7], the Kd on Axl (setting [2]) and at Mer (setting [4]) was below 100 nM throughout.
Consider `CCn1cc(OCC2CCC2)c(C(=O)Nc2ccc(Oc3ccnc4cc(OC)c(OC)cc34)cn2)n1` [Compound 8], for which the Kd at Axl (setting [2]) and on Mer (setting [4]) was below 100 nM in each case.
As for `COc1cc2nccc(Oc3ccc(NC(=O)c4nn(CCN(C)C)cc4OCC(F)(F)F)nc3)c2cc1OC` [Compound 9], the Kd at Axl (setting [2]) and on Mer (setting [4]) was below 100 nM throughout.
`COCCn1cc(OCC(F)(F)F)c(C(=O)Nc2ccc(Oc3ccnc4cc(OC)c(OC)cc34)cn2)n1` [Compound 10]: the Kd on Axl (setting [1]) was 3.2 nM; at Axl (setting [2]), below 100 nM; at Mer (setting [3]) it was 0.2 nM; at Mer (setting [4]), below 100 nM.
Turning to `CNCCn1cc(OCC(F)(F)F)c(C(=O)Nc2ccc(Oc3ccnc4cc(OC)c(OC)cc34)cn2)n1` [Compound 11], the Kd at Axl (setting [2]) and at Mer (setting [4]) was below 100 nM each time.
As for `CCCn1cc(OCC(F)F)c(C(=O)Nc2ccc(Oc3ccnc4cc(OC)c(OC)cc34)cn2)n1` [Compound 12], the Kd at Axl (setting [2]) and on Mer (setting [4]) was below 100 nM throughout.
As for `COc1cc2nccc(Oc3ccc(NC(=O)c4n[nH]cc4OCC(F)(F)F)nc3)c2cc1OC` [Compound 16], the Kd at Axl (setting [1]) is 19 nM; at Axl (setting [2]) it was below 100 nM; at Mer (setting [3]), 12 nM; at Mer (setting [4]), below 100 nM.
`COc1cc2nccc(Oc3ccc(NC(=O)c4nn(CC5COC5)cc4OCC(F)(F)F)nc3)c2cc1OC` [Compound 92]: the Kd on Axl (setting [1]) is 1.4 nM; on Axl (setting [2]), below 100 nM; at Mer (setting [3]) it was 1.3 nM; at Mer (setting [4]), below 100 nM.
As to `COc1cc2nccc(Oc3ccc(NC(=O)c4nn(C5CCN(C)C5)cc4OCC(F)(F)F)cc3F)c2cc1OC` (stereo not drawn) [Compound 96], the Kd at Axl (setting [2]) and at Mer (setting [4]) was below 100 nM each time.
Turning to `COc1cc2nccc(Oc3ccc(NC(=O)c4nn(CC5COC5)cc4OCC(F)(F)F)cc3F)c2cc1OC` [Compound 97], the Kd on Axl (setting [2]) and on Mer (setting [4]) was below 100 nM in each case.
Turning to `COc1cc2nccc(Oc3ccc(NC(=O)c4nn(C5CCN(C)C5)cc4OCC(F)(F)F)cc3C)c2cc1OC` (stereo not drawn) [Compound 98], the figures for the Kd at Axl (setting [2]) and on Mer (setting [4]) were 100 to 500 nM and below 100 nM, respectively.
Taken in the same sequence, the figures for `COc1cc2nccc(Oc3ccc(NC(=O)c4nn(CC5COC5)cc4OCC(F)(F)F)cc3C)c2cc1OC` [Compound 99] were below 100 nM and below 100 nM.
For `COc1cc2nccc(Oc3ccc(NC(=O)c4nn(C5CCN(C)C5)cc4OCC(F)(F)F)cc3)c2cc1OC` (stereo not drawn) [Compound 100] the same measures were below 100 nM and below 100 nM.
For `COc1cc2nccc(Oc3ccc(NC(=O)c4nn(CC5COC5)cc4OCC(F)(F)F)cc3)c2cc1OC` [Compound 101] the same measures were below 100 nM and below 100 nM.
As for `COc1cc2nccc(Oc3ccc(NC(=O)c4nn(C)cc4OCC(F)(F)F)nn3)c2cc1OC` [Compound 102], the Kd at Axl (setting [2]) and on Mer (setting [4]) was below 100 nM throughout.
With `COc1cc2nccc(Oc3ccc(NC(=O)c4nn(CC(C)C)cc4OCC(F)(F)F)cn3)c2cc1OC` [Compound 103], the Kd on Axl (setting [2]) and at Mer (setting [4]) was below 100 nM in each case.
In the case of `COCCn1cc(OCC(F)(F)F)c(C(=O)Nc2ccc(Oc3ccnc4cc(OC)c(OC)cc34)nc2)n1` [Compound 104], the Kd on Axl (setting [2]) and at Mer (setting [4]) was below 100 nM throughout.
Regarding `CCCn1cc(OCCOC)c(C(=O)Nc2ccc(Oc3ccnc4cc(OC)c(OC)cc34)cn2)n1` [Compound 105], the Kd at Axl (setting [2]) and on Mer (setting [4]) was below 100 nM each time.
